Results as given in PubChem BioAssay (NCI).
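Briefly, cells in 96-well plates were exposed to five compound concentrations for 48 h, and endpoints were estimated by linear interpolation. TGI: concentration producing complete growth inhibition.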

Key:
Test in all cases: growth of human tumour cells (NCI), 48 h
786-0 renal = tested on: 786-0 renal
A498 renal = tested on: A498 renal
A549 NSCLC = tested on: A549 NSCLC
CAKI-1 renal = tested on: CAKI-1 renal
CCRF-CEM leukemia = tested on: CCRF-CEM leukemia
COLO 205 colon = tested on: COLO 205 colon
DLD-1 colon = tested on: DLD-1 colon
DMS 114 small cell lung = tested on: DMS 114 small cell lung
DMS 273 small cell lung = tested on: DMS 273 small cell lung
EKVX NSCLC = tested on: EKVX NSCLC
HCC-2998 colon = tested on: HCC-2998 colon
HCT-116 colon = tested on: HCT-116 colon
HCT-15 colon = tested on: HCT-15 colon
HL-60(TB) leukemia = tested on: HL-60(TB) leukemia
HOP-62 NSCLC = tested on: HOP-62 NSCLC
HOP-92 NSCLC = tested on: HOP-92 NSCLC
HT29 colon = tested on: HT29 colon
IGROV1 ovarian = tested on: IGROV1 ovarian
K-562 leukemia = tested on: K-562 leukemia
KM12 colon = tested on: KM12 colon
LOX IMVI melanoma = tested on: LOX IMVI melanoma
LXFL 529 NSCLC = tested on: LXFL 529 NSCLC
M14 melanoma = tested on: M14 melanoma
M19-MEL melanoma = tested on: M19-MEL melanoma
MALME-3M melanoma = tested on: MALME-3M melanoma
MOLT-4 leukemia = tested on: MOLT-4 leukemia
NCI-H23 lung = tested on: NCI-H23 lung
NCI-H460 lung = tested on: NCI-H460 lung
NCI-H522 lung = tested on: NCI-H522 lung
OVCAR-3 ovarian = tested on: OVCAR-3 ovarian
OVCAR-4 ovarian = tested on: OVCAR-4 ovarian
OVCAR-8 ovarian = tested on: OVCAR-8 ovarian
RPMI-8226 leukemia = tested on: RPMI-8226 leukemia
RXF 393 renal = tested on: RXF 393 renal
SF-268 CNS = tested on: SF-268 CNS
SF-295 CNS = tested on: SF-295 CNS
SF-539 CNS = tested on: SF-539 CNS
SK-MEL-2 melanoma = tested on: SK-MEL-2 melanoma
SK-MEL-28 melanoma = tested on: SK-MEL-28 melanoma
SK-MEL-5 melanoma = tested on: SK-MEL-5 melanoma
SK-OV-3 ovarian = tested on: SK-OV-3 ovarian
SN12C renal = tested on: SN12C renal
SNB-19 CNS = tested on: SNB-19 CNS
SNB-75 CNS = tested on: SNB-75 CNS
SNB-78 CNS = tested on: SNB-78 CNS
SW-620 colon = tested on: SW-620 colon
TK-10 renal = tested on: TK-10 renal
U251 CNS = tested on: U251 CNS
UACC-257 melanoma = tested on: UACC-257 melanoma
UACC-62 melanoma = tested on: UACC-62 melanoma
UO-31 renal = tested on: UO-31 renal
XF 498 CNS = tested on: XF 498 CNS
ACHN renal = tested on: ACHN renal
BT-549 breast = tested on: BT-549 breast
DU-145 prostate = tested on: DU-145 prostate
HS 578T breast = tested on: HS 578T breast
MCF7 breast = tested on: MCF7 breast
MDA-MB-231 breast = tested on: MDA-MB-231 breast
MDA-MB-435 = tested on: MDA-MB-435
MDA-N = tested on: MDA-N
NCI-H226 lung = tested on: NCI-H226 lung
NCI/ADR-RES ovarian = tested on: NCI/ADR-RES ovarian
OVCAR-5 ovarian = tested on: OVCAR-5 ovarian
PC-3 prostate = tested on: PC-3 prostate
SR leukemia = tested on: SR leukemia
T-47D breast = tested on: T-47D breast

Measured: TGI

COc1ccc2nccc(C3=CCC4CCN(C(=O)c5ccccc5)C3C4)c2c1 (stereo unspecified)
not listed: ACHN renal | BT-549 breast | DU-145 prostate | HS 578T breast | MCF7 breast | MDA-MB-231 breast | MDA-MB-435 | MDA-N | NCI-H226 lung | NCI/ADR-RES ovarian | OVCAR-5 ovarian | PC-3 prostate | SR leukemia | T-47D breast
> 100 µM: all other assays above

C=CCOC(=O)N1c2ccc(O[Si](C)(C)C(C)(C)C)cc2[C@@]23O[C@@]24[C@@H]1C#C/C=C\C#C[C@]3(O)C(OC)(OC)C[C@@H]4C
> 75.9 µM: SNB-75 CNS
> 92.4 µM: MCF7 breast
> 89.1 µM: HS 578T breast
> 42 µM: UACC-62 melanoma
> 42.9 µM: MOLT-4 leukemia
5.48 µM: A498 renal
not listed: DLD-1 colon | DMS 114 small cell lung | DMS 273 small cell lung | LXFL 529 NSCLC | M19-MEL melanoma | SNB-78 CNS | XF 498 CNS
> 100 µM: all other assays above
